Test results reported in patent publication EP1086695B1, “Antiviral compositions comprising yohimbine as active principle” (Leone, Enzo, priority 1999, dated 2001).
Where a name gives a salt, the structure may show the parent alone.

How the values were obtained:
herpes progenitalis = assay: Example 4: treatment of herpes progenitalis in a serious form (single case); assay type: in vivo, person
Description: The patient took 5 mg/day of yohimbine HCI for more than one year with three-week rest intervals every three months, using a galenical preparation consisting of: […]

[1] = test system: herpetic keratoconjunctivitis; assay: Example 2: clinical treatment of herpetic keratitis; assay type: in vivo, subjects
Description: These re-occurrences of acute episodes were, however, mastered with three-week cycles of treatment using the drug in question, with three-week rest intervals between one cycle and another.

[2] = Doses effective as antiviral agent (general finding); assay type: in vivo; conditions: expressed as free base
Description: The preferred dosage is 5 mg/day from the onset of the first signs of the viral infection up to its cure. In the case of long courses of treatment, it is preferable to follow a scheme of two- or three-month cycles with intervals of rest of 10-15 days. Higher doses than the range indicated may result in a failure of the curative effect, this being due to the peculiarity of yohimbine, observed on various organs and apparatus, namely of stimulating an action (for example, splenocontraction) at a certain dose level, and the opposite action (splenodilation) at higher dose levels. Doses below the limit indicated may be therapeutically ineffective.

herpes virus 1 or 2 = assay: Example 1: clinical treatment of herpes; assay type: in vivo; conditions: 5 mg/day; 30 patients
Description: In the course of 7 years, 30 patients suffering from herpes virus 1 or 2 were treated, the said patients still being currently under supervision.
The treatment involved the use of 5 mg/day of yohimbine HCI until resolution of the dermatological affections.

influenza = assay: Example 3: clinical treatment of influenza syndromes; assay type: in vivo; conditions: 5 mg/day, 7-10 day treatment; including elderly patients and children
HSV-1 = conditions: against HSV-1 in their screening system; cited from earlier work

With `Nc1nc2c(ncn2COCCO)c(=O)[nH]1` [acyclovir] the “outcome of earlier treatment” value (herpes progenitalis; earlier treatment with specific drugs) was “unsuccessfully” and the “benefit in terms of recidivation” value ([1]; earlier classic treatment of the same 10 subjects) was “without any benefit”.

For `COC(=O)[C@@H]1[C@H]2C[C@H]3c4[nH]c5ccccc5c4CCN3C[C@@H]2CC[C@@H]1O` [yohimbine, methyl 17-alpha-hydroxy-20-alpha-yohimban-16-beta-carboxylate], the “doses at which yohimbine is effective as antiviral agent” value [2] was 3 to 10 mg/day.

In the case of `COC(=O)[C@@H]1[C@H]2C[C@H]3c4[nH]c5ccccc5c4CCN3C[C@@H]2CC[C@@H]1O` [yohimbine HCI, yohimbine hydrochloride], the relapse (herpes virus 1 or 2) is reported as “considerable reduction in the number of cases of relapse”, the outcome of influenza (influenza) is reported as “complete resolution” and the side effect (herpes progenitalis; 5 mg/day for more than one year) is reported as “did not reveal any side effect”. For the same molecule, the “lesions and vesicular eruptions” value (herpes progenitalis; 5 mg/day tablet, three-week rest intervals every three months) was “within approximately six months led to the disappearance of the lesions and of the vesicular eruptions”, the recurrence (herpes progenitalis; follow-up after treatment) was “Only one other slight episode of recurrence occurred five years later” and the antiherpes activity (HSV-1) was “inactive”. The relapse ([1]; 5 mg/day, 10 subjects) was “the cases of relapse were less frequent and of shorter duration”, the pain ([1]; 5 mg/day, in periods when the affection became more acute) was “the pain involved became more tolerable” and the tolerability of treatment ([1]; treatment lasting several years, three-week cycles) was “without any problems of any sort arising”.
